Our source for the MIC values is US20260098046A1, “RIFABUTIN ANALOGS FOR THE TREATMENT OF DISEASE” (BIOVERSYS AG, priority 2022, published 2026).

Converted amounts (≈) assume the structure as drawn. Read-outs that look alike come from different tables or passages of the source.

Holding throughout (assay type): cell-based
In one assay the test system is M. avium (ATCC25291). The assay can be described thus: MIC by broth microdilution (CLSI) against M. avium. The conditions noted are these: Mycobacterium avium, 168 h, cation adjusted Mueller Hinton broth + ADC (5%), 37° C. for 7 days (at least), read-out: In vitro activity (MIC) M. avium. On the procedure:
(§1) MIC values were determined by broth microdilution method according to the CLSI guideline. Unless otherwise mentioned, MIC against A. baumannii was performed in RPMI medium supplemented with 10% FCS. MIC against M. abscessus was performed in Middlebrook 7H9 broth supplemented with Middlebrook ADC growth supplement (10%). All other MIC were performed in standard cation adjusted Mueller Hinton broth, supplemented with Middlebrook ADC growth supplement (5%) for the slow growing mycobacteria (M. xenopi, M. kansasii and M. avium).
(§2) The following procedure applies to all species tested, except for M. xenopi. From a fresh culture plate (from overnight to several days depending on the bacteria), cells were resuspended in 0.9% (w/v) saline solution and bacterial inoculum was prepared in the respective testing medium with 5×10^5 CFU/mL. For M. xenopi, the inoculum was prepared from a fresh liquid culture (7H9+ADC). The appropriate volumes of a 10 mg/mL compound solution were directly dispensed in the 96-well assay plate using a digital dispenser to create two-fold dilution series from 32 to 0.002 μg/mL final concentration for A. baumannii and S. aureus; from 16 to 0.016 μg/mL for M. abscessus and M. avium; and from 1 to 6×10^−5 μg/mL for M. kansasii and M. xenopi. 100 μL of bacterial suspension was finally added to the compounds. Plates were covered and incubated without shaking at 35° C. for 20 hours for A. baumanii and S. aureus; at 30° C. for 4 days for M. abscessus; and at 37° C. for 7 days (at least) for M. kansasii (covered with aluminum foil to avoid light exposure), M. avium and M. xenopi. Every experiment contained an antibiotic as quality control. MIC was determined visually as the lowest concentration of a compound that prevents visible growth of the bacteria.
(§3) The in vitro activity of compounds described herein was determined against S. aureus (UAMS-1625 strain), A. baumannii (HUMC1 strain), M. abscessus (ATCC 19977), M. kansasii (ATCC12478), M. avium (ATCC25291), and M. xenopi (ATCC19250).

Assay [1] has as its system A. baumannii (HUMC1 strain). Put plainly: MIC by broth microdilution (CLSI) against A. baumannii. As to conditions: Acinetobacter baumannii, RPMI medium supplemented with 10% FCS, 35° C. for 20 hours, read-out: In vitro activity (MIC) A. baumannii. On the procedure: as §1, §2, §3
(In general: In broth dilution the organism is exposed to a series of concentrations in liquid medium.)

The test system of the next assay is M. kansasii (ATCC12478). The assay can be described thus: MIC by broth microdilution (CLSI) against M. kansasii. As to conditions: Mycobacterium kansasii, 168 h, cation adjusted Mueller Hinton broth + ADC (5%), 37° C. for 7 days (at least), read-out: In vitro activity (MIC) M. kansasii. On the procedure:
as §1, §2, §3

Assay [2] deals with S. aureus (UAMS-1625 strain). Put plainly: MIC by broth microdilution (CLSI) against S. aureus. The conditions noted are these: Staphylococcus aureus, 20 h, read-out: In vitro activity (MIC) S. aureus. On the procedure: as §1, §2, §3
Assay [3] deals with M. abscessus (ATCC 19977). Put plainly: MIC by broth microdilution (CLSI) against M. abscessus. The conditions noted are these: Mycobacteroides abscessus. On the procedure: as §1, §2, §3
For a further assay, the system named is M. xenopi (ATCC19250). Put plainly: MIC by broth microdilution (CLSI) against M. xenopi. As to conditions: Mycobacterium xenopi, 168 h, cation adjusted Mueller Hinton broth + ADC (5%), 37° C. for 7 days (at least), read-out: In vitro activity (MIC) M. xenopi. On the procedure:
as §1, §2, §3

[4] abbreviates: ATCC19977, 96 h, ATCC 19977, Middlebrook 7H9 broth + ADC (10%), 30° C. for 4 days, read-out: In vitro activity (MIC) M. abscessus.

Usually MIC stands for the lowest concentration that inhibits growth of the organism. For `CO[C@H]1/C=C/O[C@@]2(C)Oc3c(C)c(O)c4c(c3C2=O)C2=NC3(CCN(CC(C)C)CC3)NC2=C(NC(=O)/C(C)=C\C=C\[C@H](C)[C@H](O)[C@@H](C)[C@@H](O)[C@@H](C)[C@H](OC(=O)Cn2cc(-c3ccccc3)nn2)[C@@H]1C)C4=O` [Compound 1], the MIC was 0.03 µg/mL in the assay with M. avium (ATCC25291); 0.004 µg/mL (≈ 0.00404 µM) in assay [1]; 0.002 µg/mL in the assay with M. kansasii (ATCC12478); 0.125 µg/mL (≈ 0.126 µM) in assay [2]; 0.25 µg/mL in assay [3] (setting [4]); 0.016 µg/mL with M. xenopi (ATCC19250).
On to `COc1ccc(-c2cn(CC(=O)O[C@H]3[C@H](C)[C@H](O)[C@H](C)[C@@H](O)[C@@H](C)/C=C/C=C(/C)C(=O)NC4=C5NC6(CCN(CC(C)C)CC6)N=C5c5c(c(O)c(C)c6c5C(=O)[C@@](C)(O/C=C/[C@H](OC)[C@H]3C)O6)C4=O)nn2)cc1` [Compound 2], for which the MIC in the assay on M. avium (ATCC25291) was 0.06 µg/mL; in assay [1] it was 0.016 µg/mL (≈ 0.0157 µM); in the assay with M. kansasii (ATCC12478), 0.002 µg/mL; in assay [2] it was 0.125 µg/mL (≈ 0.123 µM); in assay [3] (setting [4]), 0.25 µg/mL; in the assay with M. xenopi (ATCC19250), 0.125 µg/mL.
Take `CO[C@H]1/C=C/O[C@@]2(C)Oc3c(C)c(O)c4c(c3C2=O)C2=NC3(CCN(CC(C)C)CC3)NC2=C(NC(=O)/C(C)=C\C=C\[C@H](C)[C@H](O)[C@@H](C)[C@@H](O)[C@@H](C)[C@H](OC(=O)Cn2cc(-c3ccc(N)cc3)nn2)[C@@H]1C)C4=O` [Compound 3]: the MIC in assay [1] was at most 0.002 µg/mL; in assay [2], 0.03 µg/mL (≈ 0.0298 µM); in assay [3] (setting [4]), 1 µg/mL.
As to `CO[C@H]1/C=C/O[C@@]2(C)Oc3c(C)c(O)c4c(c3C2=O)C2=NC3(CCN(CC(C)C)CC3)NC2=C(NC(=O)/C(C)=C\C=C\[C@H](C)[C@H](O)[C@@H](C)[C@@H](O)[C@@H](C)[C@H](OC(=O)Cn2cc(-c3ccc(-c5ccccc5)cc3)nn2)[C@@H]1C)C4=O` [Compound 7], the values for the MIC in assay [1], in assay [2] and in assay [3] (setting [4]) were 1 µg/mL (≈ 0.938 µM), 8 µg/mL (≈ 7.5 µM) and 1 µg/mL, respectively.
Turning to `CO[C@H]1/C=C/O[C@@]2(C)Oc3c(C)c(O)c4c(c3C2=O)C2=NC3(CCN(CC(C)C)CC3)NC2=C(NC(=O)/C(C)=C\C=C\[C@H](C)[C@H](O)[C@@H](C)[C@@H](O)[C@@H](C)[C@H](OC(=O)Cn2cc(CCCc3ccccc3)nn2)[C@@H]1C)C4=O` [Compound 10], the MIC in assay [1] came to 0.125 µg/mL (≈ 0.121 µM); in assay [2] it was 8 µg/mL (≈ 7.75 µM); in assay [3] (setting [4]), 0.5 µg/mL.
Consider `CO[C@H]1/C=C/O[C@@]2(C)Oc3c(C)c(O)c4c(c3C2=O)C2=NC3(CCN(CC(C)C)CC3)NC2=C(NC(=O)/C(C)=C\C=C\[C@H](C)[C@H](O)[C@@H](C)[C@@H](O)[C@@H](C)[C@H](OC(=O)Cn2cc(-c3cccs3)nn2)[C@@H]1C)C4=O` [Compound 11], for which the MIC is 0.008 µg/mL (≈ 0.00803 µM) in assay [1], 0.03 µg/mL (≈ 0.0301 µM) in assay [2] and 1 µg/mL in assay [3] (setting [4]).
With `CO[C@H]1/C=C/O[C@@]2(C)Oc3c(C)c(O)c4c(c3C2=O)C2=NC3(CCN(CC(C)C)CC3)NC2=C(NC(=O)/C(C)=C\C=C\[C@H](C)[C@H](O)[C@@H](C)[C@@H](O)[C@@H](C)[C@H](OC(=O)Cn2cc(C(C)(C)N)nn2)[C@@H]1C)C4=O` [Compound 13], the MIC in assay [1] is at most 0.002 µg/mL; in assay [2], 0.125 µg/mL (≈ 0.129 µM); in assay [3] (setting [4]), 1 µg/mL.
In the same order, the values of `CO[C@H]1/C=C/O[C@@]2(C)Oc3c(C)c(O)c4c(c3C2=O)C2=NC3(CCN(CC(C)C)CC3)NC2=C(NC(=O)/C(C)=C\C=C\[C@H](C)[C@H](O)[C@@H](C)[C@@H](O)[C@@H](C)[C@H](OC(=O)Cn2cc(CN3CCS(=O)(=O)CC3)nn2)[C@@H]1C)C4=O` [Compound 14] are at most 0.002 µg/mL, 0.06 µg/mL (≈ 0.0565 µM) and 1 µg/mL.
Take `CO[C@H]1/C=C/O[C@@]2(C)Oc3c(C)c(O)c4c(c3C2=O)C2=NC3(CCN(CC(C)C)CC3)NC2=C(NC(=O)/C(C)=C\C=C\[C@H](C)[C@H](O)[C@@H](C)[C@@H](O)[C@@H](C)[C@H](OC(=O)Cn2cc(CNS(C)(=O)=O)nn2)[C@@H]1C)C4=O` [Compound 15]: the minimum inhibitory concentration (MIC) in assay [1] is at most 0.002 µg/mL; in assay [2] it was 0.125 µg/mL (≈ 0.122 µM); in assay [3] (setting [4]), 1 µg/mL.
In the same order, the values of `CO[C@H]1/C=C/O[C@@]2(C)Oc3c(C)c(O)c4c(c3C2=O)C2=NC3(CCN(CC(C)C)CC3)NC2=C(NC(=O)/C(C)=C\C=C\[C@H](C)[C@H](O)[C@@H](C)[C@@H](O)[C@@H](C)[C@H](OC(=O)Cn2cc(CNS(=O)(=O)c3ccccc3)nn2)[C@@H]1C)C4=O` [Compound 16] are 0.008 µg/mL (≈ 0.00739 µM), 0.125 µg/mL (≈ 0.115 µM) and 0.5 µg/mL.
On to `CO[C@H]1/C=C/O[C@@]2(C)Oc3c(C)c(O)c4c(c3C2=O)C2=NC3(CCN(CC(C)C)CC3)NC2=C(NC(=O)/C(C)=C\C=C\[C@H](C)[C@H](O)[C@@H](C)[C@@H](O)[C@@H](C)[C@H](OC(=O)Cn2cc(CNS(=O)(=O)c3ccc(C)cc3)nn2)[C@@H]1C)C4=O` [Compound 17], for which the values for the MIC in assay [1], in assay [2] and in assay [3] (setting [4]) were 0.008 µg/mL (≈ 0.00729 µM), 0.25 µg/mL (≈ 0.228 µM) and 0.5 µg/mL, respectively.
On the same counts, the results for `CO[C@H]1/C=C/O[C@@]2(C)Oc3c(C)c(O)c4c(c3C2=O)C2=NC3(CCN(CC(C)C)CC3)NC2=C(NC(=O)/C(C)=C\C=C\[C@H](C)[C@H](O)[C@@H](C)[C@@H](O)[C@@H](C)[C@H](OC(=O)Cn2cc(CNS(=O)(=O)c3ccc(Cl)cc3)nn2)[C@@H]1C)C4=O` [Compound 18] are 0.06 µg/mL (≈ 0.0537 µM), 0.5 µg/mL (≈ 0.447 µM) and 0.5 µg/mL.
On to `CCCc1cn(CC(=O)O[C@H]2[C@H](C)[C@H](O)[C@H](C)[C@@H](O)[C@@H](C)/C=C/C=C(/C)C(=O)NC3=C4NC5(CCN(CC(C)C)CC5)N=C4c4c(c(O)c(C)c5c4C(=O)[C@@](C)(O/C=C/[C@H](OC)[C@H]2C)O5)C3=O)nn1` [Compound 24], for which the figures for the MIC in assay [1], in assay [2] and in assay [3] (setting [4]) were 0.004 µg/mL (≈ 0.00418 µM), 0.03 µg/mL (≈ 0.0314 µM) and 1 µg/mL, respectively.
On the same counts, the results for `CO[C@H]1/C=C/O[C@@]2(C)Oc3c(C)c(O)c4c(c3C2=O)C2=NC3(CCN(CC(C)C)CC3)NC2=C(NC(=O)/C(C)=C\C=C\[C@H](C)[C@H](O)[C@@H](C)[C@@H](O)[C@@H](C)[C@H](OC(=O)Cn2cc(C3CC3)nn2)[C@@H]1C)C4=O` [Compound 25] are at most 0.002 µg/mL, 0.03 µg/mL (≈ 0.0314 µM) and 4 µg/mL.
On the same counts, the results for `CO[C@H]1/C=C/O[C@@]2(C)Oc3c(C)c(O)c4c(c3C2=O)C2=NC3(CCN(CC(C)C)CC3)NC2=C(NC(=O)/C(C)=C\C=C\[C@H](C)[C@H](O)[C@@H](C)[C@@H](O)[C@@H](C)[C@H](OC(=O)Cn2cc(C(C)(C)C)nn2)[C@@H]1C)C4=O` [Compound 27] are 0.004 µg/mL (≈ 0.00412 µM), 0.06 µg/mL (≈ 0.0618 µM) and 2 µg/mL.
In the same order, the values of `CO[C@H]1/C=C/O[C@@]2(C)Oc3c(C)c(O)c4c(c3C2=O)C2=NC3(CCN(CC(C)C)CC3)NC2=C(NC(=O)/C(C)=C\C=C\[C@H](C)[C@H](O)[C@@H](C)[C@@H](O)[C@@H](C)[C@H](OC(=O)Cn2cc(CC3CCCCC3)nn2)[C@@H]1C)C4=O` [Compound 28] are 0.03 µg/mL (≈ 0.0297 µM), 0.5 µg/mL (≈ 0.495 µM) and 0.5 µg/mL.
Regarding `CO[C@H]1/C=C/O[C@@]2(C)Oc3c(C)c(O)c4c(O)c(c(/C=N/N5CCN(C)CC5)c(O)c4c3C2=O)NC(=O)/C(C)=C\C=C\[C@H](C)[C@H](O)[C@@H](C)[C@@H](O)[C@@H](C)[C@H](OC(C)=O)[C@@H]1C` [Rifampicin, reference compound], the MIC in assay [3] (ATCC19977, tested M. abscessus strains, read-out: MIC value on M. abscessus) is over 32 µg/mL.
